Laboratory results from publication PMC10786919, “Design-rules for stapled peptides with in vivo activity and their application to Mdm2/X antagonists” (Nature Communications, 2024).
≈ marks a conversion by molar mass, not a printed value. Positions of bridges follow the written chain, without caps; N, C: chain ends. Non-standard residues stand in square brackets, D forms with d. Residues, ends and D or L forms follow the SMILES beside them. Lys(N3) = [N-]=[N+]=NCCCC[C@H](N)C(=O)O; hArg = N=C(N)NCCCC[C@H](N)C(=O)O; R8 = C=CCCCCCC[C@@](C)(N)C(=O)O; Cba = N[C@@H](CC1CCC1)C(=O)O; S5 = C=CCCC[C@](C)(N)C(=O)O; βAla = NCCC(=O)O

Key:
[1] = Lactate dehydrogenase (LDH) release assay; assay type: cell-based; settings: LDH: Cytotoxicity assay: EC50
Method in brief: (§1)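 HCT116 cells stably carrying a p53-responsive β-lactamase reporter, seeded at 8000 cells/well, exposed to compound with 0.5% final DMSO. LDH release read with the CytoTox-ONE membrane integrity kit. Values are geometric means of at least three biological replicates.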

[2] = physchem
[3] = in vitro; settings: Nanoclick permeability assay EC50
Method in brief: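 Azido-peptide permeability was read as loss of NanoBRET signal (donor 450 nm, acceptor 610 nm) after adding NanoBret618-azide at 10 μM final.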

[4] = Experimental LogD (partition coefficient); settings: for logD: not stated, Partition Coeff LogD
[5] = tested on: HCT116 cells; assay: Lactate dehydrogenase (LDH) release assay; assay type: cell-based
Method in brief: as §1

[6] = Solubility assay (kinetic solubility, PBS pH 7); assay type: physicochemical; settings: pH 7, PBS; for solubility kinetic: pH 7, aqueous buffer, kinetic from dmso stock, read-out: Solubility
Method in brief: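 Values derive from peak-area ratios of sample versus a 100 µM standard, scaled by that standard's concentration.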

CC(=O)N[C@@H](CCCCN=[N+]=[N-])C(=O)NCCC(=O)N[C@@H](CC(C)C)C(=O)N[C@H](C(=O)N[C@@H](Cc1ccccc1)C(=O)N[C@]1(C)CCCCCCC=CCCC[C@@](C)(C(=O)N[C@@H](CO)C(=O)N[C@@H](C)C(=O)N[C@@H](C)C(N)=O)NC(=O)[C@H](CC2CCC2)NC(=O)[C@@H]2CCCCNC(=O)CC[C@H](NC1=O)C(=O)N[C@@H](Cc1ccc(O)cc1)C(=O)N[C@@H](Cc1c[nH]c3ccccc13)C(=O)N[C@@H](C)C(=O)N2)[C@@H](C)O [MP-001] (Ac-[Lys(N3)][βAla]LTF[R8]EYWAK[Cba][S5]SAA-NH2; staple 6-13; lactam 7-11)
EC50 [1]: > 50.7 µM
EPSA [2]: 173 A^2
cell entry EC50 [3]: 1.15 µM
logD [4]: 3.84

CC(=O)N[C@@H](CC(C)C)C(=O)N[C@H](C(=O)N[C@@H](Cc1ccccc1)C(=O)N[C@]1(C)CCCCCCC=CCCC[C@@](C)(C(=O)N[C@@H](CO)C(=O)N[C@@H](C)C(=O)N[C@@H](C)C(N)=O)NC(=O)[C@H](CC2CCC2)NC(=O)[C@H](CC(C)C)NC(=O)[C@H](CCC(N)=O)NC(=O)[C@H](C)NC(=O)[C@H](Cc2ccc(O)cc2)NC(=O)[C@H](CCC(=O)O)NC1=O)[C@@H](C)O [MP-364] (Ac-LTF[R8]EYAQL[Cba][S5]SAA-NH2; staple 4-11)
EC50 [1]: 16 µM
LDH: Cytotoxicity assay: % Effect [5]: 68.78%
Solubility [6]: Poorly Behaved
EPSA [2]: 196 A^2
Partition Coeff LogD [4]: Poorly Behaved

CC(=O)N[C@H](C)C(=O)N[C@H](C)C(=O)N[C@H](C)C(=O)N[C@H](C)C(=O)N[C@@H](CC(C)C)C(=O)N[C@H](C(=O)N[C@@H](Cc1ccccc1)C(=O)N[C@]1(C)CCCCCCC=CCCC[C@@](C)(C(=O)N[C@@H](CO)C(=O)N[C@@H](C)C(=O)N[C@@H](C)C(N)=O)NC(=O)[C@H](CC2CCC2)NC(=O)[C@H](CCC(N)=O)NC(=O)[C@H](C)NC(=O)[C@H](Cc2c[nH]c3ccccc23)NC(=O)[C@H](Cc2ccc(O)cc2)NC(=O)[C@H](CCC(=O)O)NC1=O)[C@@H](C)O [MP-365]
EC50 [1]: > 50.6 µM
LDH: Cytotoxicity assay: % Effect [5]: -0.1776%
solubility kinetic [6]: 76.3 µM (≈ 155 µg/mL)
EPSA [2]: 210 A^2
logD [4]: 2.6

CC(=O)N[C@@H](CC(C)C)C(=O)N[C@H](C(=O)N[C@@H](Cc1ccccc1)C(=O)N[C@]1(C)CCCCCCC=CCCC[C@@](C)(C(=O)N[C@@H](CO)C(=O)N[C@@H](C)C(=O)N[C@@H](C)C(N)=O)NC(=O)[C@H](CC2CCC2)NC(=O)[C@H](CC(C)C)NC(=O)[C@H](CCC(N)=O)NC(=O)[C@@H](Cc2c[nH]c3ccccc23)NC(=O)[C@H](Cc2ccc(O)cc2)NC(=O)[C@H](CCC(=O)O)NC1=O)[C@@H](C)O [MP-594]
EC50 [1]: 14.8 µM
LDH: Cytotoxicity assay: % Effect [5]: 35.22%
solubility kinetic [6]: 11 µM (≈ 19.7 µg/mL)
EPSA [2]: 203 A^2
logD [4]: 2.83

CC(=O)N[C@@H](CC(C)C)C(=O)N[C@H](C(=O)N[C@@H](C)C(=O)N[C@]1(C)CCCCCCC=CCCC[C@@](C)(C(=O)N[C@@H](CO)C(=O)N[C@@H](C)C(=O)N[C@H](C)C(N)=O)NC(=O)[C@H](CC2CCC2)NC(=O)[C@H](CC(C)C)NC(=O)[C@H](CCC(N)=O)NC(=O)[C@H](Cc2c[nH]c3ccccc23)NC(=O)[C@H](Cc2ccc(O)cc2)NC(=O)[C@H](CCC(=O)O)NC1=O)[C@@H](C)O [MP-671] (Ac-LTA[R8]EYWQL[Cba][S5]SA[dA]-NH2; staple 4-11)
EC50 [1]: > 50.6 µM
LDH: Cytotoxicity assay: % Effect [5]: 3.06%
solubility kinetic [6]: 74.3 µM (≈ 127 µg/mL)
EPSA [2]: 199 A^2
logD [4]: 2.27

CC(=O)N[C@@H](CC(C)C)C(=O)N[C@H](C(=O)N[C@@H](Cc1ccccc1)C(=O)NC(C)(C)C(=O)N[C@@H](CCC(=O)O)C(=O)N[C@@H](Cc1ccc(O)cc1)C(=O)N[C@@H](Cc1c[nH]c2ccccc12)C(=O)N[C@H](CCC(N)=O)C(=O)N[C@@H](CC(C)C)C(=O)N[C@@H](CC1CCC1)C(=O)NC(C)(C)C(=O)N[C@@H](CO)C(=O)N[C@@H](C)C(=O)N[C@@H](C)C(N)=O)[C@@H](C)O [MP-786]
EC50 [1]: > 50.6 µM
LDH: Cytotoxicity assay: % Effect [5]: 7.785%
solubility kinetic [6]: 170 µM (≈ 283 µg/mL)
EPSA [2]: 187 A^2
logD [4]: 1.99

CC(=O)N[C@H](CC(C)C)C(=O)N[C@H](C(=O)N[C@@H](Cc1ccccc1)C(=O)NC(C)(C)C(=O)N[C@@H](CCC(=O)O)C(=O)N[C@@H](Cc1ccc(O)cc1)C(=O)N[C@@H](Cc1c[nH]c2ccccc12)C(=O)N[C@@H](CCC(N)=O)C(=O)N[C@@H](CC(C)C)C(=O)N[C@@H](CC1CCC1)C(=O)NC(C)(C)C(=O)N[C@@H](CO)C(=O)N[C@@H](C)C(=O)N[C@@H](C)C(N)=O)[C@@H](C)O [MP-787]
EC50 [1]: > 50.6 µM
LDH: Cytotoxicity assay: % Effect [5]: 4.125%
solubility kinetic [6]: 24 µM (≈ 40 µg/mL)
EPSA [2]: 190 A^2
logD [4]: 2.16

CC(=O)N[C@@H](CC(C)C)C(=O)N[C@H](C(=O)N[C@@H](Cc1ccccc1)C(=O)NC(C)(C)C(=O)N[C@@H](CCC(=O)O)C(=O)N[C@@H](Cc1ccc(O)cc1)C(=O)N[C@@H](Cc1c[nH]c2ccccc12)C(=O)N[C@@H](CCC(N)=O)C(=O)N[C@H](CC(C)C)C(=O)N[C@@H](CC1CCC1)C(=O)NC(C)(C)C(=O)N[C@@H](CO)C(=O)N[C@@H](C)C(=O)N[C@@H](C)C(N)=O)[C@@H](C)O [MP-788]
EC50 [1]: > 50.6 µM
LDH: Cytotoxicity assay: % Effect [5]: 8.3%
solubility kinetic [6]: 83.5 µM (≈ 139 µg/mL)
EPSA [2]: 196 A^2
logD [4]: 2.06

CC(=O)N[C@@H](CC(C)C)C(=O)N[C@H](C(=O)N[C@@H](Cc1ccccc1)C(=O)NC(C)(C)C(=O)N[C@H](CCC(=O)O)C(=O)N[C@@H](Cc1ccc(O)cc1)C(=O)N[C@@H](Cc1c[nH]c2ccccc12)C(=O)N[C@@H](CCC(N)=O)C(=O)N[C@@H](CC(C)C)C(=O)N[C@@H](CC1CCC1)C(=O)NC(C)(C)C(=O)N[C@@H](CO)C(=O)N[C@@H](C)C(=O)N[C@@H](C)C(N)=O)[C@@H](C)O [MP-789]
EC50 [1]: > 50.6 µM
LDH: Cytotoxicity assay: % Effect [5]: 5.465%
solubility kinetic [6]: 28 µM (≈ 46.6 µg/mL)
EPSA [2]: 196 A^2
logD [4]: 2.12

CC(=O)N[C@@H](CCCCN=[N+]=[N-])C(=O)NCCC(=O)N[C@@H](CCCCNC(=N)N)C(=O)N[C@H](C(=O)N[C@@H](Cc1ccccc1)C(=O)N[C@]1(C)CCCCCCC=CCCC[C@@](C)(C(=O)N[C@@H](CO)C(=O)N[C@@H](C)C(=O)N[C@@H](C)C(N)=O)NC(=O)[C@H](CC2CCC2)NC(=O)[C@H](CCC(N)=O)NC(=O)[C@H](C)NC(=O)[C@H](Cc2c[nH]c3ccccc23)NC(=O)[C@H](Cc2ccc(O)cc2)NC(=O)[C@H](CCC(=O)O)NC1=O)[C@@H](C)O [MP-6896] (Ac-[Lys(N3)][βAla][hArg]TF[R8]EYWAQ[Cba][S5]SAA-NH2; staple 6-13)
solubility kinetic [6]: 2.5 µM (≈ 5.07 µg/mL)
EPSA [2]: 203 A^2
cell entry EC50 [3]: 1.13 µM
logD [4]: 2.79

CC(=O)N[C@H](CC(C)C)C(=O)N[C@H](C(=O)N[C@@H](Cc1ccccc1)C(=O)N[C@]1(C)CCCCCCC=CCCC[C@@](C)(C(=O)N[C@@H](CO)C(=O)N[C@H](C)C(=O)N[C@@H](C)C(N)=O)NC(=O)[C@H](CC2CCC2)NC(=O)[C@H](CC(C)C)NC(=O)[C@H](CCC(N)=O)NC(=O)[C@H](Cc2c[nH]c3ccccc23)NC(=O)[C@H](Cc2ccc(O)cc2)NC(=O)[C@H](CCC(=O)O)NC1=O)[C@@H](C)O [MP-7201]
EC50 [1]: > 50 µM
LDH: Cytotoxicity assay: % Effect [5]: 4.51%
solubility kinetic [6]: 19 µM (≈ 34 µg/mL)
EPSA [2]: 191 A^2
logD [4]: 2.8
